The target in the experiment is T1, human 5-HT2C receptor (Homo sapiens, UniProt P28335).
T1 sequence (P28335 33-458): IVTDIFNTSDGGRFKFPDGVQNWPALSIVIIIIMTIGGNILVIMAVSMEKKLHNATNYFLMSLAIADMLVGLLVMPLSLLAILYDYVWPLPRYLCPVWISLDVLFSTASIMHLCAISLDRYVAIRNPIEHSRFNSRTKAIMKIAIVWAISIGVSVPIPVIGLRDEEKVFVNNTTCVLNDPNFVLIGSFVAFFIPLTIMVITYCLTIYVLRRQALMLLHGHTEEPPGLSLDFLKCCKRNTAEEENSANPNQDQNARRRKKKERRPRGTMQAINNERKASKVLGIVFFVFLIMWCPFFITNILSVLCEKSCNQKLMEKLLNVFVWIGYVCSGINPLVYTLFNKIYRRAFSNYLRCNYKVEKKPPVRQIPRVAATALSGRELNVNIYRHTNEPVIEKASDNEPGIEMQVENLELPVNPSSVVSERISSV
Description: 5-HT2C receptor-stimulated calcium mobilization (FLIPR) in CHO cells.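 On all read-outs here: Fluo-3-AM fluorescence read on FLIPR every 1 s, agonist added after 10 baseline reads, response taken as peak minus lowest raw fluorescence count.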 Particulars: for pEC50: calcium mobilization, CHO cells stably expressing human 5-HT2C, read-out: 5-HT2C Function EC50; for Emax: CHO. Type of experiment: cell-based. Background: Calcium assays in cells follow changes in intracellular calcium, usually with a dye or a luminescent sensor.

The mark [1] stands for this setting: percentage of the response observed with a maximally effective concentration of 5-HT.
Setting [2] is: percentage of the response observed with a maximally effective concentration of 5-HT, read-out: 5-HT2C Function Emax (%).

pEC50: −log10 of the molar value. Read-outs that look alike come from different tables or passages of the source.

The pEC50 is the EC50 on a negative log10 scale, so that one unit is a factor of ten. Take `CNCC1Cc2cc(Cl)cc(-c3cc(Cl)ccc3Cl)c2O1` (single isomer, unassigned; (-)) [Example 563, (−)-{[5-chloro-7-(2,5-dichlorophenyl)-2,3-dihydro-1-benzofuran-2-yl]methyl}methylamine]: the negative logarithm of the EC50 (pEC50) was 6.87. Moreover, the “5-HT2C Function Emax (%)” value under setting [1] came to 70%.

For `COc1cccc(-c2cc(C)cc3c2OC(CN)C3)c1OC` (single isomer, unassigned; (-)) [Example 295, (−)-{[7-(2,3-dimethoxyphenyl)-5-methyl-2,3-dihydro-1-benzofuran-2-yl]methyl}amine], the pEC50 is 8.10. Also, the Emax under setting [2] worked out at 90%.

Turning to `CNCC1Cc2cc(Cl)cc(-c3cc(Cl)ccc3OC)c2O1` (racemic) [Example 472, (±)-{[5-chloro-7-(5-chloro-2-methoxyphenyl)-2,3-dihydro-1-benzofuran-2-yl]methyl}methylamine], the pEC50 is 6.45. Besides, the Emax under setting [2] came to 80%.

Turning to `CNCC1Cc2cc(F)cc(-c3cccc(OC)c3OC)c2O1` (single isomer, unassigned; (-)) [Example 568, (−)-{[7-(2,3-dimethoxyphenyl)-5-fluoro-2,3-dihydro-1-benzofuran-2-yl]methyl}methylamine], the negative logarithm of the EC50 (pEC50) was 8.40. In addition, under setting [2], the Emax was 80%.

Take `Cc1cccc(C)c1-c1cc(Cl)cc2c1OC(CNC1CC1)C2` (racemic) [Example 267, (±)-N-{[5-chloro-7-(2,6-dimethylphenyl)-2,3-dihydro-1-benzofuran-2-yl]methyl}cyclopropanamine]: the pEC50 is 6.14. The Emax under setting [2] came out at 80%.

For the compound `CNCC1Cc2cccc(-c3c(Cl)cccc3Cl)c2O1` (single isomer, unassigned; (+)) [Example 435, (+)-{[7-(2,6-dichlorophenyl)-2,3-dihydro-1-benzofuran-2-yl]methyl}methylamine], the pEC50 was 7.09. For the same compound, the “5-HT2C Function Emax (%)” value under setting [1] is 80%.

With `Cc1cccc(C)c1-c1cc(Cl)cc2c1OC(CN(C)C)C2` (racemic) [Example 274, (±)-{[5-chloro-7-(2,6-dimethylphenyl)-2,3-dihydro-1-benzofuran-2-yl]methyl}dimethylamine], the pEC50 was 6.48. Further, the Emax under setting [2] came to 70%.

For the compound `CNCC1Cc2cc(Cl)cc(-c3c(C)cccc3C)c2O1` (racemic) [Example 461, (±)-{[5-chloro-7-(2,6-dimethylphenyl)-2,3-dihydro-1-benzofuran-2-yl]methyl}methylamine], the pEC50 is 7.47. Under setting [2], the Emax turned out to be 80%.

Regarding `CCNCC1Cc2cc(Cl)cc(-c3c(C)cccc3C)c2O1` (racemic) [Example 271, (±)-N-{[5-chloro-7-(2,6-dimethylphenyl)-2,3-dihydro-1-benzofuran-2-yl]methyl}ethanamine], the pEC50 is 6.23. For the same compound, the Emax under setting [2] came out at 90%.

On to `NCC1Cc2cc(Cl)cc(-c3cccc(F)c3F)c2O1` (racemic) [Example 246, (±)-{[5-chloro-7-(2,3-difluorophenyl)-2,3-dihydro-1-benzofuran-2-yl]methyl}amine], for which, under setting [1], the “5-HT2C Function Emax (%)” value amounted to 90%.

Take `Cc1cccc(C)c1-c1cc(Cl)cc2c1OC(CN1CCNCC1)C2` (racemic) [Example 279, (±)-1-{[5-chloro-7-(2,6-dimethylphenyl)-2,3-dihydro-1-benzofuran-2-yl]methyl}piperazine]: the negative logarithm of the EC50 (pEC50) is 6.81. In addition, the Emax under setting [2] was 70%.

On to `CNCC1Cc2cc(F)cc(-c3ccc(Cl)cc3Cl)c2O1` (single isomer, unassigned; (-)) [Example 446], for which the pEC50 was 6.34. Moreover, the Emax (read-out: 5-HT2C Function Emax (%), percentage of the response observed with a maximally effective concentration of 5-HT) amounted to 70%.

In the case of `Cc1cccc(C)c1-c1cc(Cl)cc2c1OC(CN)C2` (single isomer, unassigned; (+)) [Example 262, (+)-{[5-chloro-7-(2,6-dimethylphenyl)-2,3-dihydro-1-benzofuran-2-yl]methyl}amine], the pEC50 was 6.33. For the same compound, the “5-HT2C Function Emax (%)” value under setting [1] is 70%.

The values are drawn from US7435837B2, “Dihydrobenzofuranyl alkanamine derivatives and methods for using same” (Wyeth, priority 2003, dated 2008).
